Legend:
anti-PEG = test: Inhibition of PEG-RBC agglutination by polymers/small ethers added to anti-PEG positive sera (anti-PEG epitope study, tube test); format: binding, human; details: for Effect on PEG-RBC agglutination (inhibition): three 4+ anti-PEG positive sera, 1% (w/v) final concentration; for Agglutination Score of PEG-RBCs: compound added at 1% w/v, PBS control 4+
Description: One drop of RBCs (PEG-coated or control (uncoated) RBCs) at 5% hct were added to 2 drops of plasma. Samples were incubated at room temperature for 15 minutes and then centrifuged at 1000×g for 1 minute. Agglutination of PEG-coated or uncoated (control) RBCs by each plasma sample was scored according to the 0-4+ scale.
The polymer and small ether solutions were added to anti-PEG positive sera at a 1:1 (v/v) ratio giving a final polymer/small ether concentration of 1% (w/v) and incubated for 30 minutes at room temperature. […] Inhibition of agglutination by the smallest ether molecule tested determined the anti-PEG epitope.

[1] = ASNase activity in sera of PEG-ASNase-treated ALL patients (microplate technique) versus anti-PEG status; format: in vivo, human
Description: Stored serum samples were collected from 28 pediatric acute lymphoblastic leukemia (ALL) patients who received the chemotherapy agent, PEG-conjugated asparaginase (PEG-ASNase). Sera were assayed for ASNase activity using a microplate technique. Testing for anti-PEG was performed by serology as described in Example 1 and by flow cytometry as described in Example 3.

For `CCOCCOCCOCC` [Diethylene Glycol Diethyl Ether], the “Effect on PEG-RBC agglutination (inhibition)” value (from here on “Effect … (inhibition)”) (anti-PEG) was “reduced PEG-RBC agglutination (4+ to 2+)”.

For `OCCOCCOCCO` [Triethylene Glycol], the “Effect … (inhibition)” value (anti-PEG) was “no effect”.

With `COCCOCCOCCOC` [Triethylene Glycol Dimethyl Ether] the “Agglutination Score of PEG-RBCs” value (anti-PEG; Anti-PEG Positive Donor A) was 0^, the “Agglutination Score of PEG-RBCs” value (anti-PEG; Anti-PEG Positive Donor B) was 0^ and the “Agglutination Score of PEG-RBCs” value (anti-PEG; Anti-PEG Positive Donor C) was 0^. For the same molecule, the “Effect … (inhibition)” value (anti-PEG) was “Complete inhibition of agglutination”.

In the case of `COCCOCCOCCOCCOC` [Tetraethylene Glycol Dimethyl Ether], the “Agglutination Score of PEG-RBCs” value (anti-PEG; Anti-PEG Positive Donor A) is reported as 0^, the “Agglutination Score of PEG-RBCs” value (anti-PEG; Anti-PEG Positive Donor B) is reported as 0^ and the “Agglutination Score of PEG-RBCs” value (anti-PEG; Anti-PEG Positive Donor C) is reported as 0^. The “Effect … (inhibition)” value (anti-PEG) was “Complete inhibition of agglutination”.

In the case of `OCCO` [Ethlyene Glycol], the “Effect … (inhibition)” value (anti-PEG) is reported as “no effect”.

In the case of `OCCOCCO` [Diethylene Glycol], the “Effect … (inhibition)” value (anti-PEG) is reported as “no effect”.

B1: PEG-asparaginase: chemotherapy agent, PEG-conjugated asparaginase (PEG-ASNase) (conjugate, UniProt P00805 23-348, looked up)
L-asparaginase 2: LPNITILATGGTIAGGGDSATKSNYTVGKVGVENLVNAVPQLKDIANVKGEQVVNIGSQDMNDNVWLTLAKKINTDCDKTDGFVITHGTDTMEETAYFLDLTVKCDKPVVMVGAMRPSTSMSADGPFNLYNAVVTAADKASANRGVLVVMNDTVLDGRDVTKTNTTDVATFKSVNYGPLGYIHNGKIDYQRTPARKHTSDTPFDVSKLNELPKVGIVYNYANASDLPAKALVDAGYDGIVSAGVGNGNLYKSVFDTLATAAKTGTAVVRSSRVPTGATTQDAEVDDAKYGFVASGTLNPQKARVLLQLALTQTKDPQQIQQIFNQY
modifications: PEG conjugate
In the case of B1, the “mean ASNase activity” value ([1]; IgM anti-PEG positive patients by flow cytometry (n=13)) is reported as 12 U/L, the ASNase activity ([1]; all anti-PEG positive patient sera, serology or flow cytometry) is reported as “low or undetectable” and the “mean ASNase activity” value ([1]; anti-PEG negative patients by flow cytometry (n=15)) is reported as 438 U/L. The “mean ASNase activity” value ([1]; anti-PEG negative patients by serology (n=19)) was 353 U/L, the ASNase activity ([1]; anti-PEG positive patients by serology (n=9)) was “undetectable” and the ASNase activity ([1]; one anomalous sample, weakly positive for anti-PEG IgM and positive for anti-ASNase) was 123 U/L.
